Reference: publication PMC4971072, “Chemically Homogenous Compounds with Antagonistic Properties at All α1-Adrenoceptor Subtypes but not β1-Adrenoceptor Attenuate Adrenaline-Induced Arrhythmia in Rats” (Frontiers in Pharmacology, 2016)
Where a name gives a salt, the structure may show the parent alone. Marks after values point to notes of the source that are not given here.

Legend:
[1] = biological target: T1, α1A-adrenoceptors (Rattus norvegicus, UniProt P43140); test: Functional bioassay, isolated rat tail artery, noradrenaline contraction; type: biochemical; conditions: noradrenaline as agonist
T1 construct: the middle part of the ventral caudal artery was removed; from tissue; host or cells: isolated rat tail (ventral caudal) artery rings
T1 sequence (P43140 1-466): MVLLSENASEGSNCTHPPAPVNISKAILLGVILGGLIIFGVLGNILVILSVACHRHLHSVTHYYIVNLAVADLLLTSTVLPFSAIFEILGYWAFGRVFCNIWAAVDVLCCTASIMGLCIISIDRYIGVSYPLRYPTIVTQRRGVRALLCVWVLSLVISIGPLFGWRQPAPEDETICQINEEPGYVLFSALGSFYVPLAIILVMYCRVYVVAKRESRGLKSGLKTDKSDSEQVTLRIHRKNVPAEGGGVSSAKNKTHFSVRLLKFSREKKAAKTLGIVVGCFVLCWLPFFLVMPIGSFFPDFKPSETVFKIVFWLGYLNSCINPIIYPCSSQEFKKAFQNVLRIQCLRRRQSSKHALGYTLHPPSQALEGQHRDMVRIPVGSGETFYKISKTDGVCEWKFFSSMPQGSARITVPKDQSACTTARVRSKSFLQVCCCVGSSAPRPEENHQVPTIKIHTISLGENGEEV
Experimental: The isolated artery, cut into ~4 mm long rings, was then horizontally put up between two stainless steel hooks (diameter 0.15 mm). One hook was fastened to the bottom of the chamber and the other to an isometric FDT10-A force displacement transducer (DMT Model 750TOBS, Denmark), linked with Powerlab 4/26 analyzer (ADInstruments), and processed by LabChart 7 software. […] The initial optimal tissues tension was set at 0.75 g. Chloroethylclonidine (3 μM) as the preferential α1B-adrenoreceptor alkylating agent was used during incubation and after 30 min it was completely washed off. Through 100 min of equilibration tissues were stimulated with noradrenaline (1 μM) four times with washing out until the contractile response become constant. Two cumulative concentration-response curves to noradrenaline, at an interval of 60 min, were established on each arterial ring both in the presence and absence of antagonist. The incubation with antagonists went on for 30 min. The experiments were carried out in the constant presence of yohimbine (0.1 μM) and propranolol (1 μM) to block α2- and β-adrenoceptors, respectively in order to minimize the involvement of these adrenoceptors in the response to noradrenaline.
Data are means ± S.E.M. of at least 4 separate experiments. To establish Hill slopes for the agonist concentration–response curves and calculate EC50 values, curves were fitted to all the data by non-linear regression. The EC50 value in the presence and absence of antagonists was used to ascertain the concentration ratio (CR). Schild analysis was performed.

[2] = system: normal ECG in rats; test: The effect on normal electrocardiogram in rats; type: in vivo, rat; conditions: anesthetized rats
Experimental: The experiment was carried out to exclude the influence of tested compounds on normal ECG. […] The influence on QRS complex, PQ interval, heart rate (RR), and QTc interval was determined.

[3] = system: adrenaline-induced arrhythmia in rats; test: Prophylactic antiarrhythmic activity in adrenaline-induced arrhythmia; type: in vivo, rat
Experimental: The studied compounds were administered i.p. 45 min before the injection of adrenaline, calcium chloride, or barium chloride. The electrocardiogram (ECG) was recorded during the first 2 min as well as in the 5th, 10th, and 15th min after the arrhythmogen injection. […]

[4] = system: adrenaline-induced arrhythmia in rats; test: Therapeutic antiarrhythmic activity in adrenaline-induced arrhythmia; type: in vivo, rat; conditions: i.v. at ED84 at the peak of adrenaline-induced arrhythmia (20 μg/kg)
Experimental: The ECG was recorded constantly for 5 min as well as in the 10th and 15th min of the experiment.

[5] = system: lipid peroxidation in rat brain homogenate; test: Lipid peroxidation in rat brain homogenate (TBARS), antioxidant effect; type: biochemical; conditions: 10^−3 M
Experimental: The rat brain homogenate containing 10 mg tissue/ml was prepared in 0.9% saline. The rates of membrane lipid peroxidation were measured by the formation of thiobarbituric acid reactive substances (TBARS). Rat brain homogenates (1 ml) were incubated at 37°C for 5 min with 10 μl of a tested compound or vehicle. Lipid peroxidation was initiated by the addition of 50 μl of 0.5 mM FeCl2 and 50 μl of 2.0 mM ascorbic acid. After 30 min of incubation, the reaction was stopped by adding 0.1 ml of 0.2% butylated hydroxytoluene (BHT). Thiobarbituric acid reagent was then added and the mixture was heated for 15 min in a boiling water bath.

[6] = i.p. at ED84, 0 min (initial values)
[7] = dose 0.1 mg/kg i.p. 45 min before adrenaline 20 μg/kg i.v.
[8] = dose 0.2 mg/kg i.p. 45 min before adrenaline 20 μg/kg i.v.
[9] = dose 0.3 mg/kg i.p. 45 min before adrenaline 20 μg/kg i.v.

- Schild slope ± S.E.M., α1A [1]: 1.06 ± 0.08
- Kb ([1]; read-out: pA2 ± S.E.M., α1A (converted)): 1.78 nM
SMILES: COc1ccccc1N1CCN(CCCOc2cc(C)ccc2Cl)CC1 [HBK-16, 1N-[3-(2-chloro-5-methylphenoxy)propyl]-4N-(2-methoxyphenyl)piperazine hydrochloride]
- influence on ECG parameters (PQ interval, QRS complex, QTc interval) ([2]; i.p. at ED84): did not influence PQ interval, QRS complex or QTc interval
- reduction of heart rate ([2]; i.p. at ED84, over the period of significant effect vs. initial values): 11−13%
- Beats/min (ECG) [2, 6]: 329.6 ± 9.8 Beats/min
- PQ (ECG) [2, 6]: 64.4 ± 1.1 ms
- QRS (ECG) [2, 6]: 21.7 ± 2.2 ms
- QT (ECG) [2, 6]: 51.4 ± 3.5 ms
- QTc (ECG, Bazett) [2, 6]: 120.5 ± 8.7 ms
- Beats/min (ECG) ([2]; i.p. at ED84, 5 min): 331.4 ± 12.5 Beats/min
- PQ (ECG) ([2]; i.p. at ED84, 5 min): 63.7 ± 1.1 ms
- QRS (ECG) ([2]; i.p. at ED84, 5 min): 21.7 ± 2.2 ms
- QT (ECG) ([2]; i.p. at ED84, 5 min): 51.2 ± 3.5 ms
- QTc (ECG, Bazett) ([2]; i.p. at ED84, 5 min): 120.7 ± 9.7 ms
- Beats/min (ECG) ([2]; i.p. at ED84, 10 min): 330.1 ± 12.4 Beats/min
- PQ (ECG) ([2]; i.p. at ED84, 10 min): 63.6 ± 0.9 ms
- QRS (ECG) ([2]; i.p. at ED84, 10 min): 21.7 ± 2.2 ms
- QT (ECG) ([2]; i.p. at ED84, 10 min): 51.2 ± 3.3 ms
- QTc (ECG, Bazett) ([2]; i.p. at ED84, 10 min): 120.2 ± 8.8 ms
- Beats/min (ECG) ([2]; i.p. at ED84, 15 min): 319.4 ± 10.3 Beats/min
- PQ (ECG) ([2]; i.p. at ED84, 15 min): 63.9 ± 1.1 ms
- QRS (ECG) ([2]; i.p. at ED84, 15 min): 21.7 ± 2.2 ms
- QT (ECG) ([2]; i.p. at ED84, 15 min): 50.1 ± 3.6 ms
- QTc (ECG, Bazett) ([2]; i.p. at ED84, 15 min): 115.8 ± 9.6 ms
- Beats/min (ECG) ([2]; i.p. at ED84, 20 min): 310.6 ± 9.8 Beats/min
- PQ (ECG) ([2]; i.p. at ED84, 20 min): 65.1 ± 1.2 ms
- QRS (ECG) ([2]; i.p. at ED84, 20 min): 21.7 ± 2.2 ms
- QT (ECG) ([2]; i.p. at ED84, 20 min): 51.4 ± 3.1 ms
- QTc (ECG, Bazett) ([2]; i.p. at ED84, 20 min): 117.3 ± 8.7 ms
- Beats/min (ECG) ([2]; i.p. at ED84, 30 min): 302.8 ± 11.0 Beats/min
- PQ (ECG) ([2]; i.p. at ED84, 30 min): 64.4 ± 1.1 ms
- QRS (ECG) ([2]; i.p. at ED84, 30 min): 21.7 ± 2.2 ms
- QT (ECG) ([2]; i.p. at ED84, 30 min): 52.7 ± 3.7 ms
- QTc (ECG, Bazett) ([2]; i.p. at ED84, 30 min): 119.0 ± 10.3 ms
- Beats/min (ECG) ([2]; i.p. at ED84, 40 min): 294.1 ± 12.2^a Beats/min
- PQ (ECG) ([2]; i.p. at ED84, 40 min): 65.9 ± 0.8 ms
- QRS (ECG) ([2]; i.p. at ED84, 40 min): 21.7 ± 2.2 ms
- QT (ECG) ([2]; i.p. at ED84, 40 min): 53.5 ± 2.8 ms
- QTc (ECG, Bazett) ([2]; i.p. at ED84, 40 min): 118.9 ± 8.4 ms
- Beats/min (ECG) ([2]; i.p. at ED84, 50 min): 291.4 ± 13.0^b Beats/min
- PQ (ECG) ([2]; i.p. at ED84, 50 min): 67.3 ± 1.6 ms
- QRS (ECG) ([2]; i.p. at ED84, 50 min): 22.0 ± 2.1 ms
- QT (ECG) ([2]; i.p. at ED84, 50 min): 54.7 ± 2.8 ms
- QTc (ECG, Bazett) ([2]; i.p. at ED84, 50 min): 121.1 ± 8.7 ms
- Beats/min (ECG) ([2]; i.p. at ED84, 60 min): 288.0 ± 13.8^b Beats/min
- PQ (ECG) ([2]; i.p. at ED84, 60 min): 68.2 ± 0.9 ms
- QRS (ECG) ([2]; i.p. at ED84, 60 min): 22.3 ± 2.0 ms
- QT (ECG) ([2]; i.p. at ED84, 60 min): 55.5 ± 2.4 ms
- QTc (ECG, Bazett) ([2]; i.p. at ED84, 60 min): 122.0 ± 7.7 ms
- ED50 ([3]; Rattus norvegicus, read-out: ED50 (confidence limits)): 0.2 mg/kg
- Bigeminy (%) [3, 7]: 33.3%
- Blocks (%) [3, 7]: 50.0%
- Bradycardia (%) [3, 7]: 66.7%
- Extrasystoles (%) [3, 7]: 83.3%
- Bigeminy (%) [3, 8]: 16.7%
- Blocks (%) [3, 8]: 33.3%
- Bradycardia (%) [3, 8]: 50.0%
- Extrasystoles (%) [3, 8]: 33.3%
- Blocks (%) [3, 9]: 16.7%
- Bradycardia (%) [3, 9]: 33.3%
- Extrasystoles (%) [3, 9]: 16.7%
- therapeutic antiarrhythmic activity (premature ventricular contractions) [4]: restored normal heart rhythm
- inhibition of lipid peroxidation (in words) [5]: inhibited lipid peroxidation
- % reduction of absorbance (% antioxidant activity) ([5]; TBARs at 532 nm): 16.63%
- Absorbance ([5]; TBARs at 532 nm): 0.752 ± 0.007
